Results on four molecules are retold here after patent US8278105B2, “Induction, propagation and isolation of liver progenitor cells” (University of Southern California, priority 2008, dated 2012).

This series has as its system HES2 or HES3 cells. Put plainly: 3i-induction of hepatocyte-like cells from human ES cells; dosages of medium components examined. Type of series: cell-based. The protocol: HES2 or 3 cells were cultured for 5 days on MEF-feeders with 20% FCS hES medium in organ culture dishes. […] Cells were detached as clumps by collagenase and feeder cells were removed by sedimentation in DMEM/F-12 medium.
They were subsequently propagated using 3i or Kubota's medium following enzymatic dissection.
HES2 or 3 cells were cultured 5 days on MEF-feeders with 20% FCS hES medium in organ culture dishes.
Cells were detached as clumps by collagenase and feeder cells were removed by sedimentation in DMEM/F-12 medium.

On to `c1cc(-c2cnn3cc(-c4ccc(OCCN5CCCCC5)cc4)cnc23)ccn1` [Dorsomorphin], for which, for the setting “Dorsomorphin 5 μM, in combination of PD0325901, CHIR99021 and Dorsomorphin”, the “toxicity to the culture” value is on record as “toxic”.
For the molecule `O=C(NOCC1CC1)c1ccc(F)c(F)c1Nc1ccc(I)cc1Cl` [PD184352], the “effect on hepatic differentiation” value was “decreased hepatic differentiation and increased trophectodermal cells” (PD184352 0.4 μM, in combination of SU5402, PD184352 and CHIR99021); “most efficient” (PD184352 0.8 μM, in combination of SU5402, PD184352 and CHIR99021); “no difference from 0.8 μM” (PD184352 1.6 μM, in combination of SU5402, PD184352 and CHIR99021).
With `O=C(NOC[C@H](O)CO)c1ccc(F)c(F)c1Nc1ccc(I)cc1F` [PD0325901], the “efficiency of hepatic differentiation compared with 3i” value reads like this: (PD0325901 0.4 μM, in combination of PD0325901 and CHIR99021) “no difference from 3i”; (PD0325901 0.8 μM, in combination of PD0325901 and CHIR99021) “more efficient than 3i”. Where the note is “PD0325901 1.6 μM, in combination of PD0325901 and CHIR99021”, the “efficiency of hepatic differentiation” value is “no difference from 0.8 μM”.
On to `Cc1c[nH]c(/C=C2\C(=O)Nc3ccccc32)c1CCC(=O)O` [SU5402, 3-[3-(2-Carboxyethyl)-4-methylpyrrol-2-methylidenyl]-2-indolinone], for which the “effect on hepatic differentiation” value is, setting by setting: (SU5402 1 μM, in combination of SU5402, PD184352 and CHIR99021) “decreased hepatic differentiation and increased trophectodermal/neural cells”; (SU5402 2 μM, in combination of SU5402, PD184352 and CHIR99021) “most efficient”. Where the note is “SU5402 4 μM, in combination of SU5402, PD184352 and CHIR99021”, the “toxicity to the culture” value was “toxic”.
